Laboratory results: patent US20250129027A1 (APOGEE PHARMACEUTICALS, INC., priority 2023, published 2025)
pIC50: −log10 of the molar value. Values after ≈ are worked out from the molar mass of the structure shown. Read-outs that look alike come from different tables or passages of the source.

Key:
[1] = Plasma stability (LC-MS/MS, % parent compound remaining, half-life); assay type: in vitro ADME; conditions: human plasma; for half-life at 1 μM: 37° C., 0-240 mins, read-out: Human Plasma Stability (t1/2, min); for plasma stability and/or aqueous solubility compared to reference compound URB597: see Table 5
Description: Exemplary compounds described herewith were assayed for plasma stability (various species).
Plasma was removed from deep freezer and allowed to thaw at room temperature (or at 37° C. if needed). Plasma was then centrifuged at 4,000 rpm at RT for 10 min and supernatant was collected and used for the assay: • Drug test tubes: 297 μL plasma/drug test tube, duplicate/drug. • Blank test tubes: 297 μL plasma/Blank test tube, duplicate, too. (Optional, if assay system is stable and consistent) • T0 plasma tube: […] X No. of total sample tubes+50 μL extra for T0 extraction. • (Note: equivalent proportion of solvent mixture as added in drug test tubes will be added before T0 extraction!)
Take out the pre-warmed plasma tubes from the 37° C. incubator. Add 3 μL of 100 μM stock solution (or, equivalent proportion of the solvent mixture to T0 plasma tube for T0 extraction) to each corresponding sample tubes in order, vortex gently (3×) to mix. Finish the sample tubes orderly and quickly, then transfer them to the Thermomixer (program & 37° C. ready), and start the Thermomixer. Record starting time on paper & start the timer for 15 min for the 1st sampling time point.
Now add the equivalent amount of solvent mixture to the T0 plasma tube, mix, and transfer 50 μL plasma to each of the T0 extracting tubes, vortex 20s and placed on ice. Vortex 10s again before centrifuging the samples at 14,000 rpm for 5 min at 4° C.
Repeat the above procedures at each time point (15, 30, 60, 120, 240 min) by transferring 50 μL plasma samples from the testing tubes to the corresponding extracting tubes, in the same order and time scheme as in the addition of the drug to the plasma samples at the beginning of the study.
• Kel=Slope of LN % PCR vs time
Half life (t½)=0.693/Kel (1)

[2] = Pharmacokinetic study in rats, IV and oral gavage, with brain penetration; assay type: in vivo, rat; conditions: for Cmax exposure relative to URB597: 10 mg/kg PO vs URB597 at 250 mg/kg; for clearance: read-out: CLp; for Vd: read-out: Vdss; for improvement in oral exposure maximums compared to URB597: dose-adjusted (25× lower dose, 10× Cmax); for Kp at 0.5 h: read-out: Brain/Plasma ratio (0.5 h); for Kp at 1 h: read-out: Brain/Plasma ratio (1 h)
Description: In pharmacokinetic (PK) studies, animals were administered compounds of the present disclosure and PK parameters were measured. Rats (male, Sprague Dawley) were administered compound of Example 158 at a dose of 1.0 mg/kg intravenously (IV) or 10 mg/kg via oral gavage (PO). Blood samples were taken at t=0.083, 0.25. 0.5, 1, 2, 4, 6, 8 and 24 h post-dose and the plasma was analyzed for concentration of test article (compound of Example 158). Using standard analytical methodology (HPLC analysis), the following parameters were obtained:
Rats were administered compound of Example 172 at a dose of 1.0 mg/kg intravenously (IV) or 10 mg/kg via oral gavage (PO). Using standard analytical methodology (HPLC analysis), the following parameters were obtained: […]

[3] = Aqueous solubility in PBS buffer pH 7.4 (LC-MS); assay type: physicochemical; conditions: phosphate buffer, kinetic from dmso stock, PBS buffer pH 7.4, room temperature, spiked at 100 μM from DMSO stock
Description: Compounds as described herewith were analyzed for their aqueous solubility.
The aqueous solubility of compounds were determined using standard protocols. To illustrate the experimental protocol, the analysis of a representative compound is described. Exemplary compound of Example 158 (MW: 380.4 g/mol) was analyzed in a buffer system at specified pH (phosphate buffer, pH 7.4). This was accomplished by spiking a DMSO stock solution of the test compound at a final concentration of 100 μM in buffer.
Solubility calculation: This is a quantitative assay. The mixture at the end of the assay is filtered by 0.22 micron syringe filter and after 5× dilution in diluent, it was analyzed versus a calibration curve using LC-MS.

[4] = molecular target: human recombinant MAGL (Homo sapiens (Human), UniProt Q99685); assay: In vitro inhibition of MAGL activity (inhibitor screening kit, 4-nitrophenylacetate); assay type: biochemical; conditions: human recombinant MAGL
How it was run: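 Percent inhibition derived from absorbance (405-412 nm) of treated wells relative to untreated enzyme control. Human recombinant MAGL with 4-nitrophenylacetate substrate, whose cleavage yields yellow 4-nitrophenol.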

[5] = molecular target: human recombinant FAAH (Homo sapiens (Human), UniProt O00519); assay: In vitro inhibition of FAAH activity (fluorescent inhibitor screening kit, AMC arachidonoyl amide); assay type: biochemical
How it was run: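 Fluorogenic kit assay: AMC arachidonoyl amide is cleaved by human recombinant FAAH, read at 340-360/450-465 nm. Percent inhibition versus non-treated control; IC50 values derived from multiple compound concentrations where tested.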

[6] = oral dosing, dose of 250 mg/kg; cited from earlier work
[7] = Sprague Dawley, plasma, rat (SD, male), IV 1.0 mg/kg, read-out: AUC0-Y (ng h/mL), IV
[8] = Sprague Dawley, plasma, rat (SD, male), IV 1.0 mg/kg
[9] = Sprague Dawley, plasma, rat (SD, male), IV 1.0 mg/kg, read-out: t1/2 (h), IV (converted)
[10] = male, Sprague Dawley, brain, rat
[11] = male, Sprague Dawley, plasma, rat, PO 10.0 mg/kg
[12] = male, Sprague Dawley, plasma, rat, PO 10.0 mg/kg, read-out: AUC0-Y (ng h/mL), PO
[13] = male, Sprague Dawley, plasma, rat, PO 10.0 mg/kg, read-out: Cmax
[14] = male, Sprague Dawley, plasma, rat, PO 10.0 mg/kg, read-out: Cmax (ng/mL)
[15] = male, Sprague Dawley, plasma, rat, PO 10.0 mg/kg, read-out: t1/2 (h), PO (converted)
[16] = rat, PO 10.0 mg/kg vs IV 1.0 mg/kg
[17] = FAAH, values as listed in Table 5, read-out: IC50
[18] = human recombinant FAAH, read-out: Inhibition on FAAH activity (IC50)
[19] = male, Sprague Dawley, brain, intravenous, 1 mg/kg, rat

Chain of human recombinant FAAH (O00519 whole entry): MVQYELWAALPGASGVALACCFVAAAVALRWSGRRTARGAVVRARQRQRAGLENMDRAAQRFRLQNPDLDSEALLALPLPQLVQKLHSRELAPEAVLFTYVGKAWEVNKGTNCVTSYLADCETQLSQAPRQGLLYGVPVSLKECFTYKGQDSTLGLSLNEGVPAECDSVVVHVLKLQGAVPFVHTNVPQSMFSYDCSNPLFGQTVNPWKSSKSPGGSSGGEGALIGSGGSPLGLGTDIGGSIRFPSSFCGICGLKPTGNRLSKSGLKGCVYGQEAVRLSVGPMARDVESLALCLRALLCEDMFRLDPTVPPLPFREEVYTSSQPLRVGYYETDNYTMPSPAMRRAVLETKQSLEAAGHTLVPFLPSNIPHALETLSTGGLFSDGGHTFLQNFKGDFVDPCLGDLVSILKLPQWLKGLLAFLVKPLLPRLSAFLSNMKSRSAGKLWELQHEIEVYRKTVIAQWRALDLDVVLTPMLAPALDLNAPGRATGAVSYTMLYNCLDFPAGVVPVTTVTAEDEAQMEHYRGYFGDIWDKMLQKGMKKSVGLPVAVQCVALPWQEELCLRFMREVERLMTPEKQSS
Chain of human recombinant MAGL (Q99685 whole entry): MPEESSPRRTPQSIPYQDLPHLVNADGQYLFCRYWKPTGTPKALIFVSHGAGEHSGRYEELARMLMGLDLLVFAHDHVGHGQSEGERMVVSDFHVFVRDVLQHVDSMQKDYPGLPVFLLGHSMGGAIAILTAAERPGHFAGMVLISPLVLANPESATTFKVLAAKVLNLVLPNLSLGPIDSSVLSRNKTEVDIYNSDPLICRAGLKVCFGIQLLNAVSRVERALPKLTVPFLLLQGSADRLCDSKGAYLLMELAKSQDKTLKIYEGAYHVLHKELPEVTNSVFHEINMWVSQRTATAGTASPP

O=C(NC1CCCCC1)Oc1ccc(O)c(-c2cncc(-c3nnco3)c2)c1 [Example 158, 3-(5-(1,3,4-oxadiazol-2-yl)pyridin-3-yl)-4-hydroxyphenyl cyclohexylcarbamate]
half-life at 1 μM [1]: 350 min | plasma stability and/or aqueous solubility compared to reference compound URB597 [1]: improved plasma stability, improved aqueous solubility, or improved plasma stability and aqueous solubility | Cmax exposure relative to URB597 [2]: ~10 × | AUC [2, 7]: 1340 ng·h/mL | clearance [2, 8]: 12 mL/min/kg | Vd [2, 8]: 0.62 L/kg | half-life [2, 9]: 0.31 h | improvement in oral exposure maximums compared to URB597 [2]: ~250 × | Kp at 0.5 h [2, 10]: 0.01 | Kp at 1 h [2, 10]: 0.02 | Tmax [2, 11]: 30 min | AUC [2, 12]: 7050 ng·h/mL | Cmax [2, 13]: 5.05 µM | Cmax [2, 14]: 1920 ng/mL | half-life [2, 15]: 2.85 h | bioavailability ([2]; male, Sprague Dawley, rat, plasma, oral, 10 mg/kg, rat, PO 10.0 mg/kg vs IV 1.0 mg/kg, read-out: F (%) oral bioavailability): 53% | Co ([2]; rat (SD, male), IV 1.0 mg/kg): 4829 ng/mL | Co [uM] ([2]; rat (SD, male), IV 1.0 mg/kg): [12.7 uM] | AUC0-Y (ng h/mL), PO ([2]; rat, PO 10.0 mg/kg): 7054 ng·h/mL | t1/2 (h), PO ([2]; rat, PO 10.0 mg/kg): 2.85 h | F (%) oral bioavailability [2, 16]: > 50% | solubility [3]: 92.5 µM (≈ 35.2 µg/mL) | pIC50 [4]: < 4.30 | pIC50 [5, 17]: 6.90 | pIC50 [5, 18]: 6.91

COc1ccc(OC(=O)NC2CCCCCC2)cc1-c1cncc(-c2nnco2)c1 [Example 172, 3-(5-(1,3,4-oxadiazol-2-yl)pyridin-3-yl)-4-methoxyphenyl cycloheptylcarbamate]
half-life at 1 μM [1]: 361 min | plasma stability and/or aqueous solubility compared to reference compound URB597 [1]: improved plasma stability, improved aqueous solubility, or improved plasma stability and aqueous solubility | Cmax exposure relative to URB597 [2]: ~10 × | AUC [2, 7]: 424 ng·h/mL | clearance [2, 8]: 40 mL/min/kg | Vd [2, 8]: 1.58 L/kg | half-life [2, 9]: 0.8 h | improvement in oral exposure maximums compared to URB597 [2]: ~250 × | Kp at 0.5 h [2, 19]: 0.15 | Kp at 1 h [2, 19]: 0.19 | Kp at 0.5 h [2, 10]: 0.15 | Kp at 1 h [2, 10]: 0.19 | Kp ([2]; male, Sprague Dawley, brain, rat, time not stated, read-out: Brain/Plasma ratio): > 0.15 | Tmax [2, 11]: 30 min | AUC [2, 12]: 5260 ng·h/mL | Cmax [2, 13]: 5.91 µM | Cmax [2, 14]: 2250 ng/mL | half-life [2, 15]: 1.25 h | Co ([2]; rat (SD, male), IV 1.0 mg/kg): 1528 ng/mL | Co [uM] ([2]; rat (SD, male), IV 1.0 mg/kg): [4.02 uM] | AUC0-Y (ng h/mL), PO ([2]; rat, PO 10.0 mg/kg): 5257 ng·h/mL | F (%) oral bioavailability [2, 16]: >100% | solubility [3]: 16.2 µM (≈ 6.62 µg/mL) | pIC50 [4]: < 5.00 | pIC50 [5, 17]: 6.95 | pIC50 [5, 18]: 6.95

CSc1ccc(OC(=O)NC2CCCCCC2)cc1-c1cncc(-c2nnco2)c1 [Example 191, 3-(5-(1,3,4-oxadiazol-2-yl)pyridin-3-yl)-4-(methylthio)phenyl cycloheptylcarbamate]
half-life at 1 μM [1]: 31 min | plasma stability and/or aqueous solubility compared to reference compound URB597 [1]: improved plasma stability, improved aqueous solubility, or improved plasma stability and aqueous solubility | solubility [3]: 11.9 µM (≈ 5.05 µg/mL) | pIC50 [4]: < 5.00 | pIC50 [5, 17]: 6.82 | pIC50 [5, 18]: 6.81

O=C(NC1CCCCCC1)Oc1cc(F)cc(-c2cncc(-c3nnco3)c2)c1 [Example 198, 3-(5-(1,3,4-oxadiazol-2-yl)pyridin-3-yl)-5-fluorophenyl cycloheptylcarbamate]
half-life at 1 μM [1]: 4.7 min | solubility [3]: 5.7 µM (≈ 2.26 µg/mL) | pIC50 [4]: < 5.00 | pIC50 [5, 17]: 6.88 | pIC50 [5, 18]: 6.88

O=C(NC1CCCCCC1)Oc1cccc(-c2cncc(-c3ncn[nH]3)c2)c1 [Example 225, 3-(5-(1H-1,2,4-triazol-5-yl)pyridin-3-yl)phenyl cycloheptyl carbamate]
half-life at 1 μM [1]: 47 min | plasma stability and/or aqueous solubility compared to reference compound URB597 [1]: improved plasma stability, improved aqueous solubility, or improved plasma stability and aqueous solubility | solubility [3]: 8.6 µM (≈ 3.25 µg/mL) | pIC50 [4]: ~5.00 | pIC50 [5, 17]: 6.75 | pIC50 [5, 18]: 6.75

O=C(NC1CCCCCC1)Oc1ccc(O)c(-c2cncc(-c3ncn[nH]3)c2)c1 [Example 231, 3-(5-(1H-1,2,4-triazol-5-yl)pyridin-3-yl)-4-hydroxyphenyl cycloheptylcarbamate]
half-life at 1 μM [1]: 634 min | plasma stability and/or aqueous solubility compared to reference compound URB597 [1]: improved plasma stability, improved aqueous solubility, or improved plasma stability and aqueous solubility | solubility [3]: 78.8 µM (≈ 31 µg/mL) | pIC50 [4]: < 5.00 | pIC50 [5, 17]: 6.86 | pIC50 [5, 18]: 6.86

O=C(NC1CCCCC1)Oc1cccc(-c2cncc(-c3nnco3)n2)c1 [Example 267, 3-(6-(1,3,4-oxadiazol-2-yl)pyrazin-2-yl)phenyl cyclohexylcarbamate]
half-life at 1 μM [1]: 12 min | solubility [3]: 73.6 µM (≈ 26.9 µg/mL) | pIC50 [4]: < 5.00 | pIC50 [5, 17]: 6.85 | pIC50 [5, 18]: 6.85

NC(=O)c1cccc(-c2cccc(OC(=O)NC3CCCCC3)c2)c1 [URB597, reference compound]
Cmax [6]: ~200 ng/mL | half-life at 1 μM [1]: 47 min | solubility [3]: 2.8 µM (≈ 0.948 µg/mL) | pIC50 [4]: < 4.30
